Our source for the IC50 values is US7153844B2, “Estrogen-linked platinum (II) complexes as anticancer agents” (priority 2002, dated 2006).

pIC50: −log10 of the molar value.

What all share (test): Cell proliferation with the MTT assay
Type in all cases: cell-based, human

For one test, the system named is A2780cp. Particulars: read-out: IC50 (Inhibitory concentration 50%), ovary, ER−, NR = IC50 not reach at the concentrations tested. From the text:
(§1) Cell Proliferation with the MTT Assay (Uterine, Ovarian and Breast Cancer Cell Lines)
(§2) Several human uterine, ovarian and breast cancer cell lines were used to evaluate the antitumor activities of the new estrogen-linked platinum (II) complexes. The cytotoxicity of the platinum (II) complexes was done along with cisplatin as the control on both ER+ and ER— human uterine, ovarian and breast carcinomas. Cell proliferation was done with the MTT assay as described by J. Carmichael et al. (Cancer Res. 47, 943–946 (1987) see also C. H. J. Ford et al., Cancer Chemother. Pharmacol. 24, 295–301 (1986)). The MTT assay is based on the ability of viable cells to reduce a soluble colorless tetrazolium salt, 3-(4,5-dimethylthiazol-2-yl)-2,5-diphenyltetrazolium bromide (MTT), into an insoluble blue formazan derivative.

In another test the test system is A2780wt. The note with it: read-out: IC50 (Inhibitory concentration 50%), ovary, ER−, NR = IC50 not reach at the concentrations tested.
From the text: as §1, §2

A further test concerns HEC-1A. Particulars: read-out: IC50 (Inhibitory concentration 50%), uterus, ER−, NR = IC50 not reach at the concentrations tested.
From the text: as §1, §2

The next test deals with HS578T. The note with it: read-out: IC50 (Inhibitory concentration 50%), breast, ER−, NR = IC50 not reach at the concentrations tested.
From the text: as §1, §2

For another test, the system named is HeLa. Particulars: read-out: IC50 (Inhibitory concentration 50%), uterus, ER−, NR = IC50 not reach at the concentrations tested.
From the text: as §1, §2

Another test relates to Ishikawa. The note with it: read-out: IC50 (Inhibitory concentration 50%), uterus, ER+, NR = IC50 not reach at the concentrations tested.
From the text: as §1, §2

A further test deals with KLE. The note with it: read-out: IC50 (Inhibitory concentration 50%), uterus, ER−, NR = IC50 not reach at the concentrations tested.
From the text: as §1, §2

Another test deals with MCF-7. The note with it: read-out: IC50 (Inhibitory concentration 50%), MCF-7, breast, ER+, NR = IC50 not reach at the concentrations tested.
From the text: as §1, §2

A further test has as its system MDA-MB-231. Particulars: read-out: IC50 (Inhibitory concentration 50%), MDA-MB-231, breast, ER−, NR = IC50 not reach at the concentrations tested.
From the text: as §1, §2

The next test concerns OVCAR-3. Particulars: read-out: IC50 (Inhibitory concentration 50%), OVCAR-3, ovary, ER+, NR = IC50 not reach at the concentrations tested.
From the text: as §1, §2

Another test relates to RL-95-2. Particulars: read-out: IC50 (Inhibitory concentration 50%), RL-95-2, uterus, ER+, NR = IC50 not reach at the concentrations tested.
From the text: as §1, §2

A further test concerns SKOV-3. Particulars: read-out: IC50 (Inhibitory concentration 50%), SKOV-3, ovary, ER+, NR = IC50 not reach at the concentrations tested.
From the text: as §1, §2

The next test concerns ZR-75-1. Particulars: read-out: IC50 (Inhibitory concentration 50%), ZR-75-1, breast, ER+, NR = IC50 not reach at the concentrations tested.
From the text: as §1, §2

For “16β-hydroxymethyl-16α-[8′-(2-pyridin-2-yl-ethylamino)-3′,6′-dioxaoctyl]-1,3,5(10)-estratrien-3,17β-diol dichloroplatinum (II) [derivative 23]”, the pIC50 in the test on A2780cp was 4.80; in the test on A2780wt, 5.10; in the test on HEC-1A, 4.69; in the test with HS578T, 4.79; with HeLa, 4.86; with Ishikawa it was 5.60. For the same molecule, the pIC50 in the test with KLE was 4.76; with MCF-7, 4.90; with MDA-MB-231 it was 4.73; with OVCAR-3 it was 4.47; in the test on RL-95-2 it was 5.20; in the test with SKOV-3, 4.49. The pIC50 with ZR-75-1 is 4.84.

In the case of `C[C@]12CCC3c4ccc(O)cc4CCC3C1C[C@@](CO)(CCCCNCc1ccccn1)[C@@H]2O.[Cl][Pt][Cl]` (stereo partly drawn) [derivative 14 (∘ = 1, p = 2), 16β-hydroxymethyl-16α-[4-(1-pyridin-2-yl-methylamino)-butyl]-1,3,5(10)-estratrien-3,17β-diol dichloroplatinum (II)], the pIC50 in the test with A2780cp is less than 4.40; with A2780wt, 4.47; in the test with HEC-1A, less than 4.40; in the test with HS578T it was less than 4.40; in the test with HeLa it was less than 4.40; with Ishikawa it was 4.44. The pIC50 is less than 4.40 in the test with KLE; less than 4.40 in the test with MCF-7; less than 4.40 in the test with MDA-MB-231; less than 4.40 in the test with OVCAR-3; 4.40 with RL-95-2; less than 4.40 in the test on SKOV-3. Further, in the test with ZR-75-1, the pIC50 was less than 4.40.

As for `C[C@]12CCC3c4ccc(O)cc4CCC3C1C[C@@](CO)(CCCCCCNCc1ccccn1)[C@@H]2O.[Cl][Pt][Cl]` (stereo partly drawn) [derivative 14 (∘ = 1, p = 4), 16β-hydroxymethyl-16α-[6-(1-pyridin-2-yl-methylamino)-hexyl]-1,3,5(10)-estratrien-3,17β-diol dichloroplatinum (II)], the pIC50 with A2780cp was less than 4.40; with A2780wt, 4.63; with HEC-1A it was 4.71; with HS578T it was 4.44; in the test on HeLa it was 4.44; in the test with Ishikawa it was less than 4.40. Besides, the pIC50 with KLE is 4.44; in the test on MCF-7, less than 4.40; with MDA-MB-231, less than 4.40; with OVCAR-3 it was less than 4.40; in the test on RL-95-2, 4.80; in the test with SKOV-3, less than 4.40. In addition, the pIC50 in the test with ZR-75-1 was less than 4.40.

`C[C@]12CCC3c4ccc(O)cc4CCC3C1C[C@@](CO)(CCCCCCCCNCc1ccccn1)[C@@H]2O.[Cl][Pt][Cl]` (stereo partly drawn) [derivative 14 (∘ = 1, p = 6), 16β-hydroxymethyl-16α-[8-(1-pyridin-2-yl-methylamino)-octyl]-1,3,5(10)-estratrien-3,17β-diol dichloroplatinum (II)]: the pIC50 in the test on A2780cp was 4.96; in the test with A2780wt it was 5.20; in the test on HEC-1A it was 5.04; with HS578T, 4.76; in the test on HeLa, 4.46; in the test on Ishikawa, 4.71. Besides, the pIC50 in the test with KLE was 4.71; in the test on MCF-7, 4.70; with MDA-MB-231 it was 4.40; with OVCAR-3, 4.73; with RL-95-2, 5.11; in the test on SKOV-3 it was 4.46. For the same molecule, the pIC50 in the test on ZR-75-1 was 4.95.

Consider `C[C@]12CCC3c4ccc(O)cc4CCC3C1C[C@@](CO)(CCCCCCCCCCNCc1ccccn1)[C@@H]2O.[Cl][Pt][Cl]` (stereo partly drawn) [derivative 14 (∘ = 1, p = 8), 16β-hydroxymethyl-16α-[10-(1-pyridin-2-yl-methylamino)-decyl]-1,3,5(10)-estratrien-3,17β-diol dichloroplatinum (II)], for which the pIC50 was 4.78 with A2780cp; 5.00 in the test on A2780wt; 4.81 in the test with HEC-1A; 4.46 in the test on HS578T; 4.49 in the test on HeLa; less than 4.40 in the test on Ishikawa. The pIC50 is 5.02 with KLE; 4.75 in the test on MCF-7; 4.82 with MDA-MB-231; 4.40 in the test with OVCAR-3; 5.02 in the test with RL-95-2; less than 4.40 in the test with SKOV-3. Moreover, in the test with ZR-75-1, the pIC50 is 4.56.

Consider `C[C@]12CCC3c4ccc(O)cc4CCC3C1C[C@@](CO)(CCCCNCCc1ccccn1)[C@@H]2O.[Cl][Pt][Cl]` (stereo partly drawn) [derivative 14 (∘ = 2, p = 2), 16β-hydroxymethyl-16α-[4-(2-pyridin-2-yl-ethylamino)-butyl]-1,3,5(10)-estratrien-3,17β-diol dichloroplatinum (II)], for which the pIC50 in the test on A2780cp was 4.52; in the test on A2780wt it was 4.71; in the test on HEC-1A, 4.58; in the test with HS578T, 4.48; with HeLa, 4.46; in the test on Ishikawa, 4.80. Also, the pIC50 in the test on KLE is less than 4.40; in the test with MCF-7, 4.55; in the test on MDA-MB-231, less than 4.40; in the test with OVCAR-3 it was 4.51; with RL-95-2, 5.00; in the test on SKOV-3, 4.45. Besides, in the test on ZR-75-1, the pIC50 is 4.58.

In the case of `C[C@]12CCC3c4ccc(O)cc4CCC3C1C[C@@](CO)(CCCCCCNCCc1ccccn1)[C@@H]2O.[Cl][Pt][Cl]` (stereo partly drawn) [derivative 14 (∘ = 2, p = 4), 16β-hydroxymethyl-16α-[6-(2-pyridin-2-yl-ethylamino)-hexyl]-1,3,5(10)-estratrien-3,17β-diol dichloroplatinum (II)], the pIC50 was 5.15 in the test with A2780cp; 5.30 with A2780wt; 5.19 in the test on HEC-1A; 5.14 with HS578T; 5.05 in the test on HeLa; 4.70 with Ishikawa. In addition, the pIC50 with KLE was 5.05; in the test with MCF-7, 5.15; in the test on MDA-MB-231, less than 4.40; in the test with OVCAR-3, 4.90; in the test on RL-95-2, 5.19; in the test with SKOV-3 it was 4.90. In addition, the pIC50 in the test with ZR-75-1 was 4.94.

In the case of `C[C@]12CCC3c4ccc(O)cc4CCC3C1C[C@@](CO)(CCCCCCCCNCCc1ccccn1)[C@@H]2O.[Cl][Pt][Cl]` (stereo partly drawn) [derivative 14 (∘ = 2, p = 6), 16β-hydroxymethyl-16α-[8′-(2-pyridin-2-yl-ethylamino)-octyl]-1,3,5(10)-estratrien-3,17β-diol dichloroplatinum (II)], the pIC50 in the test with A2780cp is 5.44; in the test with A2780wt, 5.48; in the test with HEC-1A, 5.68; with HS578T it was 5.37; in the test with HeLa, 5.34; with Ishikawa, 5.10. For the same molecule, the pIC50 in the test with KLE was 5.57; with MCF-7 it was 5.19; in the test on MDA-MB-231 it was 4.98; in the test with OVCAR-3, 5.30; with RL-95-2, 7.00; with SKOV-3, 5.32. Also, the pIC50 with ZR-75-1 was 5.34.

As for `C[C@]12CCC3c4ccc(O)cc4CCC3C1C[C@@](CO)(CCCCCCCCCCNCCc1ccccn1)[C@@H]2O.[Cl][Pt][Cl]` (stereo partly drawn) [derivative 14 (∘ = 2, p = 8), 16β-hydroxymethyl-16α-[10-(2-pyridin-2-yl-ethylamino)-decyl]-1,3,5(10)-estratrien-3,17β-diol dichloroplatinum (II)], the pIC50 in the test on A2780cp is 5.70; with A2780wt, 5.78; in the test with HEC-1A, 5.62; in the test on HS578T, 5.48; with HeLa, 5.17; in the test with Ishikawa it was 5.66. In addition, the pIC50 in the test with KLE is 5.43; with MCF-7, 5.40; with MDA-MB-231, 5.40; with OVCAR-3, 5.02; with RL-95-2, 5.51; in the test on SKOV-3, 5.24. Also, the pIC50 in the test with ZR-75-1 is 5.60.
